From patent US10765114B2, “4-amino-6-(pyridyl and 2-substitutedphenyl)-picolinates and 6-amino-2-(pyridyl and 2-substitutedphenyl)-pyrimidine-4-carboxylates and their use as herbicides” (Dow AgroSciences LLC, priority 2013, dated 2020)
Where two headings read alike, the source gives them in different places.

Key:
[1] = tested on: Key Broadleaf Weed and Crop Species; experiment: Post-Emergent Test II (Table 5); format: in vivo; details: post-emergence, 336 h; for pest or weed control at 54.5 g/ha: application rate 54.5 (kg ai/ha; footnote: g ai/ha); for pest or weed control at 109 g/ha: application rate 109 (kg ai/ha; footnote: g ai/ha)
Procedure, shortened: (§1)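 Post-emergence greenhouse spray, 1st-2nd true leaf stage; track sprayer, 187 L/ha; acetone/DMSO stock diluted in aqueous acetone/IPA/DMSO with Atplus 411F and Triton X-155; rates 1× to 1/16×; subirrigated; visual injury 0 (none) to 100% (complete kill) at 14 days.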

[2] = tested on: Key Grass and Sedge Weeds as well as Grass Crops; experiment: Post-Emergent Test II (Table 6); format: in vivo; details: post-emergence, 336 h, 14 days after application; for pest or weed control at 54.5 g/ha: 54.5 g ai/ha; for pest or weed control at 109 g/ha: 109 g ai/ha
Procedure, shortened: as §1

[3] = Abutilon theophrasti, ABUTH: velvetleaf (Abutilon theophrasti), read-out: Visual Growth Reduction (%) 14 Days After Application ABUTH
[4] = Amaranthus retroflexus, AMARE: redroot pigweed (Amaranthus retroflexus), read-out: Visual Growth Reduction (%) 14 Days After Application AMARE
[5] = Brassica napus, BRSSS: oilseed rape, canola (Brassica napus), read-out: Visual Growth Reduction (%) 14 Days After Application BRSSS
[6] = Chenopodium album, CHEAL: lambsquarters (Chenopodium album), read-out: Visual Growth Reduction (%) 14 Days After Application CHEAL
[7] = Euphorbia heterophylla, EPHHL: wild poinsettia (Euphorbia heterophylla), read-out: Visual Growth Reduction (%) 14 Days After Application EPHHL
[8] = Helianthus annuus, HELAN: sunflower (Helianthus annuus), read-out: Visual Growth Reduction (%) 14 Days After Application HELAN
[9] = Viola tricolor, VIOTR: wild pansy (Viola tricolor), read-out: Visual Growth Reduction (%) 14 Days After Application VIOTR
[10] = DIGSA: crabgrass (Digitaria sanguinalis), read-out: Visual Growth Reduction (%) 14 Days After Application DIGSA
[11] = ECHSS, read-out: Visual Growth Reduction (%) 14 Days After Application ECHSS
[12] = ORYSS (crop), read-out: Visual Growth Reduction (%) 14 Days After Application ORYSS
[13] = SETFA: giant foxtail (Setaria faberi), read-out: Visual Growth Reduction (%) 14 Days After Application SETFA
[14] = SORVU: grain sorghum (Sorghum vulgare), read-out: Visual Growth Reduction (%) 14 Days After Application SORVU
[15] = TRZSS (crop), read-out: Visual Growth Reduction (%) 14 Days After Application TRZSS
[16] = ZEAMX: maize, corn (Zea mays), read-out: Visual Growth Reduction (%) 14 Days After Application ZEAMX

**Q.** Which results are given for `COC(=O)c1nc(-c2ccc(Cl)c(F)c2SC)c(F)c(N)c1Cl` [Compound 18]?
**A.** pest or weed control at 54.5 g/ha [1, 3]: 60 to 74%; pest or weed control at 109 g/ha [1, 3]: 60 to 74%; pest or weed control at 54.5 g/ha [1, 4]: 75 to 84%; pest or weed control at 109 g/ha [1, 4]: 95 to 100%; pest or weed control at 54.5 g/ha [1, 5]: 0 to 29%; pest or weed control at 109 g/ha [1, 5]: 0 to 29%; pest or weed control at 54.5 g/ha [1, 6]: 85 to 94%; pest or weed control at 109 g/ha [1, 6]: 85 to 94%; pest or weed control at 54.5 g/ha [1, 7]: 0 to 29%; pest or weed control at 109 g/ha [1, 7]: 0 to 29%; pest or weed control at 54.5 g/ha [1, 8]: 75 to 84%; pest or weed control at 109 g/ha [1, 8]: 75 to 84%; pest or weed control at 54.5 g/ha [1, 9]: 0 to 29%; pest or weed control at 109 g/ha [1, 9]: 0 to 29%; pest or weed control at 54.5 g/ha ([2]; CYPSS, read-out: Visual Growth Reduction (%) 14 Days After Application CYPSS): 95 to 100%; pest or weed control at 54.5 g/ha [2, 10]: 0 to 29%; pest or weed control at 109 g/ha [2, 10]: 0 to 29%; pest or weed control at 54.5 g/ha [2, 11]: 0 to 29%; pest or weed control at 109 g/ha [2, 11]: 0 to 29%; pest or weed control at 54.5 g/ha [2, 12]: 0 to 29%; pest or weed control at 109 g/ha [2, 12]: 0 to 29%; pest or weed control at 54.5 g/ha [2, 13]: 0 to 29%; pest or weed control at 109 g/ha [2, 13]: 0 to 29%; pest or weed control at 54.5 g/ha [2, 14]: 0 to 29%; pest or weed control at 109 g/ha [2, 14]: 0 to 29%; pest or weed control at 54.5 g/ha [2, 15]: 0 to 29%; pest or weed control at 109 g/ha [2, 15]: 0 to 29%; pest or weed control at 54.5 g/ha [2, 16]: 0 to 29%; pest or weed control at 109 g/ha [2, 16]: 0 to 29%
